Where two headings read alike, the source gives them in different places.
Legend:
Format in all cases: cell-based
HIV (HTLV-IIIB strain) = experiment: HIV replication inhibition assay (Test Example 1; MT-4 cells, MTT); conditions: Human immunodeficiency virus 1, MT4, 96 h, HIV (HTLV-IIIB strain), MT-4 cells, MTT, four days; for EC50: read-out: EC50; for EC90: read-out: EC90
Procedure: HIV (HTLV-IIIB strain) persistent infected human T cell strain Molt-4 clone8 was cultured in RPMI-1640 medium supplemented with 10% fetal bovine serum and the supernatant was filtered, then the virus titer was measured and stored at −80° C. Each anti-human immunodeficiency virus active substance was diluted with the above culture medium to the designated concentration, which was dispensed into 96-well microtiter plate by 50 μL. Next, 100 μL of MT-4 cell suspension (2.5×10^4 cells) was dispensed into each well, then 50 μl of the above HIV-containing supernatant diluted with the above culture medium was added thereto (60 pfu (plaque forming unit)).
Cell mixture was cultured at 37° C. in CO2 incubator for four days, then 30 μL of MTT (3-(4,5-dimethylthiazole-2-yl)-2,5-diphenyltetrazolyum bromide) reagent (5 mg/mL in PBS) was added to all wells followed by incubation for 1 hour. In this step, MTT was reduced to insoluble formazan in living cells. To elute generated formazan 150 μL of the culture supernatant was removed from all wells, then 150 μL of cell lysis solution (10% Triton X-100 and 0.4% (v/v)-HCl containing isopropanol) was added thereto, followed by shaking with a plate mixer. The formazan was measured with micro plate reader at OD: 560 nm and 690 nm (reference wavelength) and the result was compared with the reference wells. EC50 and EC90 mean the compound concentration at which cytotoxicity caused by virus infection is inhibited 50% and 90%, respectively.

[1] = system: T125A mutant virus (HIV-1 NL-432 recombinant molecular clone, IN gene); experiment: HIV replication inhibition assay against integrase 124/125 mutant virus (Test Example 2)
In short: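 MT-4 cells (2.5×10^4 per well) infected with 60 pfu of 293T-derived HIV-1 NL-432 clone carrying integrase 124/125 point mutations, in presence of compound, cultured 4 days at 37 °C. Viability by MTT formazan at 560/690 nm; EC50 = concentration inhibiting 50% of virus-induced cytotoxicity.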

HIV = conditions: EC50 in the presence of human serum (25%) versus without human serum, MT-4 cells
Procedure: To confirm the influence of human serum on anti-HIV activity as necessary, human serum was added and determined EC50 in this condition. Human serum (100 μL/well) was dispensed into each anti-HIV active substance at a designated concentration dispensed 50 μL each in advance into a 96-well microtiter plate, and the plate was incubate at room temperature for 1 hour. To the serum-free plate, only culture medium (100 μL/well) was dispensed into 96-well microtiter plate. MT-4 cells (3×10^4 cells/well) was infected with 3 μL/well of HIV solution diluted to an appropriate concentration (600 pfu/50 μL) by the required number of wells and incubated at 37° C. for 1 hour. The infected cells were centrifuged at 1200 rpm for 5 minutes, the supernatant was discarded, and the infected cells were dispersed into culture medium for the required number of wells at 50 μL/well. Infected cell suspension was dispensed into a 96-well microtiter plate of which anti-HIV active substance and human serum prepared in advance. The cell mixture was mixed with a plate mixer and cultured in a CO2 incubator for 4 days. The EC50 in the presence of human serum was calculated in the same manner as in Test Example 1 and the ratio of EC50 in the presence of human serum and EC50 in the absence of human serum was calculated as the potency shift value. […]

[2] = Human immunodeficiency virus 1, MT4, read-out: EC50 against T125A mutant virus, T125A mutant virus (HIV-1 NL-432 IN gene), MT-4 cells, MTT
[3] = read-out: EC50 against T125A mutant virus, T125A mutant virus (HIV-1 NL-432 IN gene), MT-4 cells, MTT

`Cc1ccc(-c2c([C@H](OC(C)(C)C)C(=O)O)c(C)c3c4c2c(Cl)c(C)n4CCN3C)cc1` [Compound I-002] gave an EC50 (HIV (HTLV-IIIB strain)) of 2.2 nM, an EC90 (HIV (HTLV-IIIB strain)) of 3.5 nM and an EC50 [1, 2] of 21 nM.

`Cc1ccc(-c2c([C@H](OC(C)(C)C)C(=O)O)c(C)c3c4c2ccn4CCN3C)cc1` [Compound I-004] showed an EC50 (HIV (HTLV-IIIB strain)) of 4.1 nM, an EC90 (HIV (HTLV-IIIB strain)) of 6 nM and an EC50 [1, 2] of 48 nM.

With `Cc1ccc(-c2c([C@H](OC(C)(C)C)C(=O)O)c(C)c3c4c2cc(COCc2ccccc2)n4CCN3C)cc1` [Compound I-005] the EC50 (HIV (HTLV-IIIB strain)) was 31 nM, the EC90 (HIV (HTLV-IIIB strain)) was 46 nM and the Potency shift value (HIV) was 7.8.

Compound `Cc1ccc(-c2c([C@H](OC(C)(C)C)C(=O)O)c(C)c3c4c2cc(C)n4CCN3c2cccc(F)n2)cc1` [Compound I-286] has an EC50 [1, 2] of 15 nM and a Potency shift value (HIV) of 14.

In the case of `Cc1ccc(-c2c([C@H](OC(C)(C)C)C(=O)O)c(C)c3c4c2cc(C)n4CCN3c2ccc(N3CCCC3=O)cn2)cc1` [Compound I-288], the EC50 [1, 2] is reported as 5.3 nM and the Potency shift value (HIV) is reported as 11.

For `Cc1ccc(-c2c([C@H](OC(C)(C)C)C(=O)O)c(C)c3c4c2cc(C)n4CCN3c2ccc3ncccc3n2)cc1` [Compound I-289], the EC50 [1, 2] was 35 nM and the Potency shift value (HIV) was 15.

Work on `CC(=O)NCCOc1cnc(N2CCn3c(C)cc4c(-c5ccc(C)cc5)c([C@H](OC(C)(C)C)C(=O)O)c(C)c2c43)nc1` [Compound I-295] yielded an EC50 [1, 2] of 62 nM and a Potency shift value (HIV) of 5.3.

In the case of `C=Cc1cnc(N2CCn3c(C)cc4c(-c5ccc(Cl)cc5)c([C@H](OC(C)(C)C)C(=O)O)c(C)c2c43)nc1` [Compound I-299], the EC50 [1, 2] is reported as 5.1 nM and the Potency shift value (HIV) is reported as 20.

With `Cc1c(-c2c([C@H](OC(C)(C)C)C(=O)O)c(C)c3c4c2cc(C)n4CCN3CCN(C)C)cc(F)c2c1CCCO2` [Compound I-310] the EC50 [1, 2] was 68 nM and the Potency shift value (HIV) was 1.2.

`Cc1c([C@H](OC(C)(C)C)C(=O)O)c(-c2ccc(Cl)cc2)c2cc(C)n3c2c1N(c1ncc(C2CCOCC2)cn1)CC3` [Compound I-311] was tested, and the EC50 [1, 2] was 3.1 nM and the Potency shift value (HIV) was 15.

With `COCc1cnc(N2CCn3c(C)cc4c(-c5ccc(Cl)cc5)c([C@H](OC(C)(C)C)C(=O)O)c(C)c2c43)nc1` [Compound I-312] the EC50 [1, 2] was 4.6 nM and the Potency shift value (HIV) was 37.

Work on `Cc1c([C@H](OC(C)(C)C)C(=O)O)c(-c2ccc(Cl)cc2)c2cc(C)n3c2c1N(c1ncc(CN(C)C)cn1)CC3` [Compound I-313] yielded an EC50 [1, 2] of 8.8 nM and a Potency shift value (HIV) of 7.7.

`CCOCc1cnc(N2CCn3c(C)cc4c(-c5ccc(Cl)cc5)c([C@H](OC(C)(C)C)C(=O)O)c(C)c2c43)nc1` [Compound I-314] was tested, and the EC50 [1, 2] was 5.3 nM and the Potency shift value (HIV) was 41.

Compound `Cc1c([C@H](OC(C)(C)C)C(=O)O)c(-c2ccc(Cl)cc2)c2cc(C)n3c2c1N(c1ncc(COCCN(C)C)cn1)CC3` [Compound I-315] has an EC50 [1, 2] of 80 nM and a Potency shift value (HIV) of 3.9.

In the case of `Cc1ccc(-c2c([C@H](OC(C)(C)C)C(=O)O)c(C)c3c4c2cc(C)n4CCN3c2ncc(N3C[C@@H](C)O[C@@H](C)C3)cn2)cc1` [Compound I-316], the EC50 [1, 2] is reported as 6.6 nM and the Potency shift value (HIV) is reported as 17.

`Cc1c([C@H](OC(C)(C)C)C(=O)O)c(-c2cc3ccccc3s2)c2cc(C)n3c2c1N(CCN(C)C)CC3` [Compound I-319] gave an EC50 [1, 2] of 87 nM and a Potency shift value (HIV) of 3.4.

`Cc1c([C@H](OC(C)(C)C)C(=O)O)c(C2=CCC(C)(C)CC2)c2cc(C)n3c2c1N(CCN(C)C)CC3` [Compound I-320] gave an EC50 [1, 2] of 16 nM and a Potency shift value (HIV) of 2.6.

With `COc1cnc(N2c3c(C)c([C@H](OC(C)(C)C)C(=O)O)c(-c4ccc(Cl)cc4)c4cc(C)n(c34)C3CN(C(=O)c4ccccc4)CC32)nc1` (stereo partly shown) [Compound I-322] the EC50 [1, 2] was 44 nM and the Potency shift value (HIV) was 15.

`COc1ccc(N2CCn3c(C)cc4c(-c5ccc(C)cc5)c([C@H](OC(C)(C)C)C(=O)O)c(C)c2c43)nn1` [Compound I-328] was tested, and the EC50 [1, 2] was 51 nM and the Potency shift value (HIV) was 4.2.

`Cc1ccc(-c2c([C@H](OC(C)(C)C)C(=O)O)c(C)c3c4c2cc(C)n4CCN3c2nc(C)ns2)cc1` [Compound I-329] was tested, and the EC50 [1, 2] was 19 nM and the Potency shift value (HIV) was 15.

In the case of `Cc1ccc(-c2c([C@H](OC(C)(C)C)C(=O)O)c(C)c3c4c2cc(C)n4CCN3c2ncc(Oc3ncccn3)cn2)cc1` [Compound I-330], the EC50 [1, 2] is reported as 7.7 nM and the Potency shift value (HIV) is reported as 39.

In the case of `Cc1c([C@H](OC(C)(C)C)C(=O)O)c(-c2ccc(Cl)cc2)c2cc(C)n3c2c1N(C)CC3c1ccccc1` (stereo partly shown) [Compound I-331], the EC50 [1, 3] is reported as 92 nM and the Potency shift value (HIV) is reported as 7.

Work on `Cc1c([C@H](OC(C)(C)C)C(=O)O)c(-c2ccc(Cl)cc2)c2cc(C)n3c2c1N(C)CC3c1ccccc1` (stereo partly shown) [Compound I-332] yielded an EC50 [1, 3] of 13 nM and a Potency shift value (HIV) of 25.

`Cc1ccc(-c2c([C@H](OC(C)(C)C)C(=O)O)c(C)c3c4c2cc(C)n4CCN3c2ncc(CCO)cn2)cc1` [Compound I-335] was tested, and the EC50 [1, 2] was 14 nM and the Potency shift value (HIV) was 36.

For `Cc1ccc(-c2c([C@H](OC(C)(C)C)C(=O)O)c(C)c3c4c2cc(C)n4CCN3c2ncc(CCN(C)C)cn2)cc1` [Compound I-337], the EC50 [1, 2] was 28 nM and the Potency shift value (HIV) was 3.6.

`Cc1ccc(-c2c([C@H](OC(C)(C)C)C(=O)O)c(C)c3c4c2cc(C)n4CCN3c2ncc(Oc3ccc4ccccc4n3)cn2)cc1` [Compound I-338] showed an EC50 [1, 2] of 21 nM and a Potency shift value (HIV) of 18.

For `Cc1ccc(-c2c([C@H](OC(C)(C)C)C(=O)O)c(C)c3c4c2cc(C)n4CCN3c2ncc(Oc3ccnc4ccccc34)cn2)cc1` [Compound I-340], the EC50 [1, 2] was 15 nM and the Potency shift value (HIV) was 18.

Compound `Cc1ccc(-c2c([C@H](OC(C)(C)C)C(=O)O)c(C)c3c4c2cc(C)n4CCN3c2ncc(Oc3nc(C)nc4ccccc34)cn2)cc1` [Compound I-343] has an EC50 [1, 2] of 21 nM and a Potency shift value (HIV) of 11.

With `Cc1ccc(-c2c([C@H](OC(C)(C)C)C(=O)O)c(C)c3c4c2cc(C)n4CCN3c2ncc(Oc3nccc4ccccc34)cn2)cc1` [Compound I-344] the EC50 [1, 2] was 17 nM and the Potency shift value (HIV) was 33.

`Cc1ccc(-c2c([C@H](OC(C)(C)C)C(=O)O)c(C)c3c4c2cc(C)n4CCN3c2ncc(Oc3nc4ccccc4o3)cn2)cc1` [Compound I-345] gave an EC50 [1, 2] of 38 nM and a Potency shift value (HIV) of 41.

With `Cc1ccc(-c2c([C@H](OC(C)(C)C)C(=O)O)c(C)c3c4c2cc(C)n4CCN3c2ncc(CN3CCCC3)cn2)cc1` [Compound I-347] the EC50 [1, 2] was 10 nM and the Potency shift value (HIV) was 7.4.

In the case of `Cc1ccc(-c2c([C@H](OC(C)(C)C)C(=O)O)c(C)c3c4c2cc(C)n4CCN3c2ncc(CN3CCOCC3)cn2)cc1` [Compound I-348], the EC50 [1, 2] is reported as 5 nM and the Potency shift value (HIV) is reported as 21.

With `Cc1ccc(-c2c([C@H](OC(C)(C)C)C(=O)O)c(C)c3c4c2cc(C)n4CCN3c2ncc(CN3CCN(C)CC3)cn2)cc1` [Compound I-349] the EC50 [1, 2] was 30 nM and the Potency shift value (HIV) was 3.6.

In the case of `Cc1ccc(-c2c([C@H](OC(C)(C)C)C(=O)O)c(Cl)c3c4c2cc(C)n4CCN3c2ncc(OCCN(C)C)cn2)cc1` [Compound I-350], the EC50 [1, 2] is reported as 22 nM and the Potency shift value (HIV) is reported as 4.3.

Compound `Cc1ccc(-c2c([C@H](OC(C)(C)C)C(=O)O)c(C)c3c4c2cc(C)n4CCN3c2ncc(CCN3CCN(C)CC3)cn2)cc1` [Compound I-351] has an EC50 [1, 2] of 17 nM and a Potency shift value (HIV) of 5.5.

Work on `Cc1ccc(-c2c([C@H](OC(C)(C)C)C(=O)O)c(Cl)c3c4c2cc(C)n4CCN3c2nc3c(s2)CCN(C)C3)cc1` [Compound I-352] yielded an EC50 [1, 2] of 14 nM and a Potency shift value (HIV) of 10.

`Cc1ccc(-c2c([C@H](OC(C)(C)C)C(=O)O)c(Cl)c3c4c2cc(C)n4CCN3c2nc3c(s2)CN(C)CC3)cc1` [Compound I-353] was tested, and the EC50 [1, 2] was 15 nM and the Potency shift value (HIV) was 10.

Compound `Cc1ccc(-c2c([C@H](OC(C)(C)C)C(=O)O)c(Cl)c3c4c2cc(C)n4CCN3c2ccc(C)nn2)cc1` [Compound I-354] has an EC50 [1, 2] of 5.3 nM and a Potency shift value (HIV) of 27.

From patent US10494380B2, “Nitrogen-containing tricyclic derivatives having HIV replication inhibitory activity” (priority 2015, dated 2019)
